Measured values published in the supplement of paper PMC8671470.
± gives the standard deviation of the averaged measurements.

System: HL-60
Test: cell viability (% survival relative to DMSO control); higher = less cytotoxic
Details: 72 h
Procedure, shortened: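 Four-parameter log-logistic fits in drc and PharmacoGx supplied area under the curve where it is given. Underlying viability came from CellTiter-Glo, normalised to DMSO and proteasome-inhibitor wells, with the proteasome inhibitor at 10 μM. HL-60 cells in RPMI 1640 plus 10% FBS had been rescreened against the full library at five tenfold concentrations of 1–10,000 nM, in duplicate on 384-well plates, with DMSO or 100 nM of one of three metabolic inhibitors, for 72 h at 37 °C, 5% CO2.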

[1] = 0.001 µM, co-treatment: AZD3965 100 nM
[2] = 0.001 µM, co-treatment: DMSO vehicle
[3] = 0.001 µM, co-treatment: GSK2194069 100 nM
[4] = 0.001 µM, co-treatment: pictilisib 100 nM
[5] = 0.01 µM, co-treatment: AZD3965 100 nM
[6] = 0.01 µM, co-treatment: DMSO vehicle
[7] = 0.01 µM, co-treatment: GSK2194069 100 nM
[8] = 0.01 µM, co-treatment: pictilisib 100 nM
[9] = 0.1 µM, co-treatment: AZD3965 100 nM
[10] = 0.1 µM, co-treatment: DMSO vehicle
[11] = 0.1 µM, co-treatment: GSK2194069 100 nM
[12] = 0.1 µM, co-treatment: pictilisib 100 nM
[13] = 1 µM, co-treatment: AZD3965 100 nM
[14] = 1 µM, co-treatment: DMSO vehicle
[15] = 1 µM, co-treatment: GSK2194069 100 nM
[16] = 1 µM, co-treatment: pictilisib 100 nM
[17] = 10 µM, co-treatment: AZD3965 100 nM
[18] = 10 µM, co-treatment: DMSO vehicle
[19] = 10 µM, co-treatment: GSK2194069 100 nM
[20] = 10 µM, co-treatment: pictilisib 100 nM

Compound | cell viability [1] [%] | cell viability [2] [%] | cell viability [3] [%] | cell viability [4] [%] | cell viability [5] [%] | cell viability [6] [%] | cell viability [7] [%] | cell viability [8] [%] | cell viability [9] [%] | cell viability [10] [%] | cell viability [11] [%] | cell viability [12] [%] | cell viability [13] [%] | cell viability [14] [%] | cell viability [15] [%] | cell viability [16] [%] | cell viability [17] [%] | cell viability [18] [%] | cell viability [19] [%] | cell viability [20] [%]
Clc1ccc2c(c1Cl)CNCC2 | 97.69 ± 0.2 | 100 ± 2.3 | 93.2 ± 0.5 | 97.1 ± 7.5 | 94 ± 7.1 | 103.4 ± 0.11 | 102.4 ± 0.12 | 108 ± 11 | 103 ± 2.1 | 103 ± 3.9 | 107 ± 9.4 | 103 ± 8.7 | 105 ± 4.7 | 99.5 ± 2.9 | 106.8 ± 0.64 | 95.3 ± 7.3 | 102 ± 1.6 | 107 ± 6.2 | 99.73 ± 0.7 | 103.3 ± 0.41
CC(C)Cc1sc(N)nc1-c1ccc(P(=O)(O)O)o1 | 105 ± 4.8 | 101 ± 7.6 | 108 ± 9.1 | 97.8 ± 1.5 | 99.1 ± 8.8 | 100.4 ± 0.35 | 96.7 ± 7.1 | 89.8 ± 15 | 99.2 ± 21 | 105 ± 7.3 | 103 ± 8.6 | 109 ± 9.9 | 102 ± 3.8 | 104 ± 1.7 | 105 ± 3 | 98.8 ± 7.3 | 101 ± 1.6 | 99.2 ± 4.2 | 100 ± 3.6 | 105 ± 9.4
Cl.OC[C@H]1NC[C@@H](O)[C@@H](O)[C@@H]1O [1-Deoxymannojirimycin hydrochloride] | 100 ± 3.4 | 99 ± 15 | 94.8 ± 6.3 | 95 ± 18 | 99.9 ± 6.2 | 107 ± 2.2 | 90.2 ± 12 | 99.8 ± 5 | 101 ± 1.6 | 100 ± 1.1 | 93.66 ± 0.51 | 102 ± 2.5 | 101.8 ± 0.31 | 106 ± 1.2 | 101 ± 9 | 111.2 ± 1 | 101 ± 5.8 | 95.9 ± 2.1 | 86.6 ± 3 | 104 ± 6.5
CN(C)c1nc(O)c2[nH]cnc2n1 [2-Dimethylamino-6-hydroxypurine] | 98.9 ± 2.2 | 99.5 ± 1.3 | 98.8 ± 1.3 | 101 ± 8 | 97.93 ± 0.42 | 103 ± 8.9 | 110 ± 20 | 105 ± 3 | 100 ± 2.5 | 96.5 ± 1.1 | 92.4 ± 1.2 | 102.5 ± 0.56 | 97.6 ± 3 | 88.1 ± 12 | 104 ± 12 | 114 ± 16 | 101.2 ± 0.26 | 102 ± 4.7 | 108 ± 16 | 99 ± 9.8
O=C(O)c1cc2sccc2[nH]1 [4H-thieno[3,2-b]pyrrole-5-carboxylic acid] | 96.3 ± 5.8 | 101.92 ± 0.033 | 99.1 ± 7.8 | 109 ± 14 | 101 ± 5.4 | 101 ± 2.9 | 100.5 ± 0.55 | 94.5 ± 6.3 | 94.6 ± 11 | 103 ± 7.1 | 101.3 ± 0.73 | 97.3 ± 4.2 | 76.4 ± 8.7 | 97.47 ± 0.64 | 90.2 ± 1.1 | 84.3 ± 7.3 | 104 ± 11 | 104 ± 3.8 | 100 ± 9.4 | 99.3 ± 9.8
[N-]=[N+]=CC(=O)CC[C@H](N)C(=O)O [6-Diazo-5-oxo-L-norleucine] | 97.4 ± 11 | 98.1 ± 2.5 | 96.8 ± 8.2 | 86.7 ± 24 | 97.3 ± 4.9 | 100.1 ± 0.89 | 101 ± 3.5 | 102 ± 4.2 | 111 ± 13 | 103 ± 1.3 | 105 ± 9.1 | 102 ± 3.5 | 100.44 ± 0.019 | 101 ± 2.2 | 103 ± 6.7 | 105 ± 7.1 | 100 ± 1.3 | 101 ± 2.1 | 101.3 ± 0.3 | 87.8 ± 10
Sc1ncnc2nc[nH]c12 [6-mercaptopurine] | 101.3 ± 0.71 | 104 ± 1.1 | 99.93 ± 0.86 | 102 ± 1.8 | 102.8 ± 0.97 | 98.8 ± 7 | 106 ± 2.9 | 108 ± 6.8 | 96.3 ± 2 | 97.9 ± 2.4 | 95.62 ± 0.77 | 91.2 ± 1 | 101.2 ± 0.68 | 102 ± 4.9 | 89.8 ± 13 | 98.3 ± 10 | 23.9 ± 2 | 35.1 ± 1.3 | 35.9 ± 3 | 32.6 ± 0.66
O=C(O)CC[C@H](NC(=O)c1ccc([N+](=O)[O-])cc1)C(=O)O [(S)-2-(4-Nitrobenzamido)pentanedioic acid] | 103.2 ± 0.55 | 101.4 ± 0.26 | 101 ± 4 | 90.7 ± 1.9 | 106 ± 5.3 | 100 ± 2.4 | 110 ± 1.1 | 102 ± 1.9 | 102 ± 1.6 | 99 ± 1.6 | 103 ± 4.5 | 88.78 ± 0.71 | 102 ± 2.1 | 102 ± 2.3 | 102 ± 3.7 | 102 ± 10 | 103 ± 7.4 | 101 ± 1.4 | 99.2 ± 2.3 | 92.3 ± 24
O=C1Nc2ccccc2/C1=C\NCCc1ccc(O)c(O)c1 [AC1NZZMF] | 95.6 ± 7.7 | 103 ± 1.8 | 99.4 ± 2.7 | 102 ± 6.3 | 90.2 ± 23 | 100.1 ± 0.38 | 98.5 ± 11 | 110 ± 4.9 | 102 ± 4 | 102 ± 1.2 | 100 ± 1.1 | 97.2 ± 13 | 105 ± 8.5 | 102.2 ± 0.11 | 99 ± 0.43 | 103 ± 13 | 87.9 ± 9.7 | 100.97 ± 0.1 | 95.4 ± 1.8 | 74.1 ± 3.9
Cc1ccc(S(=O)(=O)NC2c3ccccc3Oc3ccccc32)cc1 [AH-7614] | 100 ± 1.6 | 100 ± 0.64 | 104 ± 2.2 | 104.2 ± 0.15 | 99.6 ± 0.97 | 100.5 ± 0.4 | 101 ± 2.9 | 90.6 ± 8.2 | 102 ± 4.4 | 100.4 ± 0.53 | 96.8 ± 5.2 | 96.6 ± 2.9 | 97.3 ± 4.8 | 102.5 ± 0.72 | 95.1 ± 9.7 | 92.2 ± 15 | 95.8 ± 1.2 | 96.04 ± 0.12 | 97.2 ± 3.4 | 96.4 ± 7
C[C@]12CC[C@H](O)CC1=CC[C@@H]1[C@@H]2CC[C@]2(C)C(c3cccnc3)=CC[C@@H]12 [Abiraterone] | 109 ± 10 | 97.8 ± 1.5 | 106.3 ± 0.78 | 104 ± 14 | 103 ± 1.9 | 98 ± 2.3 | 96.1 ± 4.2 | 102 ± 8 | 93.4 ± 14 | 93.1 ± 11 | 86.9 ± 16 | 84.9 ± 22 | 100.2 ± 0.73 | 97.9 ± 1.7 | 107 ± 11 | 99.5 ± 8.8 | 103 ± 5.8 | 105 ± 5.8 | 105 ± 8.8 | 108 ± 1.3
O=C(COc1ccc(C(=O)c2ccccc2)cc1)NC1CCN(Cc2ccccc2)CC1 [AdipoRon] | 101 ± 1.2 | 99.7 ± 4.2 | 105 ± 6.7 | 97.7 ± 7.3 | 99.9 ± 9.8 | 100.3 ± 0.47 | 103 ± 5.5 | 104 ± 8 | 106 ± 2 | 104 ± 5.3 | 101 ± 3.1 | 97.7 ± 3.8 | 98.45 ± 0.62 | 80.8 ± 30 | 92.1 ± 7.6 | 92.4 ± 10 | 105 ± 3.6 | 105 ± 5.4 | 93.3 ± 6.3 | 91.2 ± 1.6
